# Tests used:
# [1] = Organ damage in treated mice; assay type: in vivo
# EO771 tumors = test: EO771 orthotopic breast tumor model in immunodeficient nude (NU/J) mice; assay type: in vivo; conditions: for tumor growth and weight: immune-deficient nude mice, 20 mg kg-1, vs control group; for size of gross dissected mammary EO771 tumors: nude mice, 20 mg kg−1, harvested day 18
# Experimental: Animal studies: All animal experiments were performed in accordance with the National Institutes of Health's Animal Use Guidelines and protocols approved by the Animal Care and Use Committee of Indiana University School of Medicine. […] Each mouse was injected with a total of 2×10^5 tumor cells. 5 mice were used in each group. Tumors were measured in two dimensions using a manual caliper. Tumor volume was calculated using the following formula: V=0.5×length×width×width. Tumor volume was measured every 3 days. Tumors were harvested 22 days after injection. The tumor growth, volume and weight were analyzed. To evaluate the anti-tumor effect of drugs in immunocompetent C57BL/6 mice and immunodeficient nude (NU/J) mice, 2×10^5 EO771 cells were orthotopically injected into fat pad of the 4th mammary gland in female mice. […] For CD4/CD8 depletion experiment, the tumor-bearing mice were randomly divided into 7 groups (n=8 mice/group) including isotype control (rat IgG2a, Bioxcell), isotype control+CUDC-101, isotype control+BML-210, anti-CD8 (Clone: 53-6.72, Bioxcell)+CUDC-101, anti-CD8+BML-210, anti-CD4 (Clone: GK1.5, Bioxcell)+CUDC-101, or anti-CD4+BML-210. Intraperitoneal injection of inhibitors (20 mg kg-1) and anti-CD4/CD8 (10 mg kg-1) were administrated to the mice by 3 times/week for 2 weeks. The tumors were harvested at day 18 (NU/J mice) or day 28 (C57BL/6 mice) for further analyses. In immune checkpoint blockade experiment, 2×10^5 EO771 cells were orthotopically injected into fat pad of the 4th mammary gland in female C57BL/6 mice. From day 10, the tumor-bearing mice were randomly divided into each treatment group (n=8 mice/group), and the mice were treated with IgG2a isotype control antibody (clone 2A3, Bioxcell), BML-210 (20 mg kg-1), anti-PD-1 (200 μg/mouse, Bioxcell), or BML-210 and anti-PD-1 combo. The treatment was done 3 times/week for 2 weeks. Tumors were harvested at day 26 post injection and the tumors were analyzed by IHC staining, flow cytometry, ELISA or CyTOF assay.
# MDA-MB-468 cells = test: Gene expression in MDA-MB-468 cells (quantitative RT-PCR); assay type: cell-based, human; conditions: BML-210 1.0 μM, FIG. 4B
# OVA+ EO771 cells = test: H-2Kb presentation on OVA+ EO771 cells (flow cytometry, confocal); assay type: cell-based, mouse; conditions: for H-2Kb antigen presentation (confocal images): 1 μM, 48 h, FIG. 4E; for H-2Kb levels on EO771 cells (MFI): flow cytometry
# Experimental: Flow Cytometry: Sample acquisition was done using LSR Fortessa X-20 or LSR Fortessa (BD Biosciences) and data were analyzed using FlowJo v10.6.0 software. Live/dead cells were assessed using SYTOX Blue (Invitrogen, Dilution 1:100). For cell staining involving cell permeabilization, the BD cytofix/cytoperm fixation permeabilization kit (BD Biosciences) was used. The PBS buffer containing 0.5% BSA and 10% FBS were used to dilute antibodies. The antibodies used in flow cytometrical analyses include: […] The compensation was performed using CompBeads for negative control (BD Biosciences), anti-mouse Ig,κ (BD Biosciences), anti-rat Ig,κ and anti-hamster Ig,κ (BD Biosciences). The beads were stained with the corresponding antibodies separately under the same conditions as the cells were stained in each experiment. SYTOX Blue reagent was used to stain dead cells. Half of the live cells were incubated at 60° C. for 2 min to enable membrane permeable and then mixed with the other half incubated at 37° C. The mixed cells were stained with SYTOX Blue for 15 mins and used for compensation. For all the data analysis, doublet exclusion was performed and only single cells were analyzed. Dead cell populations were also excluded from analysis if the experiment were not involved in cell killing. One million events per sample were collected for immune profiling analysis in the animal experiments. For all in vitro experiments, at least ten thousand events per sample were collected for flow cytometry analysis. Confocal Microscopy: OVA+ EO771 and NY-ESO-1+ MDA-MB-468 cells were seeded at 5×10^3 cell/well in the 8-well slide (Millicell EZ slide, […]) and treated with 1 μM drug (GSK-LSD1, CUDC-101 or BML-210) for 48 h. FITC-conjugated anti-mouse H-2Kb antibody (Biolegend, dilution 1:50) and FITC-conjugated anti-HLA-A2 (Biolegend, dilution 1:50) were used to stain OVA+ EO771 and NY-ESO-1+ MDA-MB-468 cells, respectively, for 2 h. For cell nucleus staining, cells were incubated with 0.5% Triton X-100/PBS for 10 min and stained with DAPI (Sigma-Aldrich, dilution 1:100) for 15 min. The slides were rinsed in PBS twice and mounted with ProLong Gold anti-fade mountant (Invitrogen, P36930). Fluorescence images were captured using Leica TCS SP8 (upright high speed multiphoton) confocal imaging system. 3-D images were analyzed by the Imaris x64 8.1.2 software.
# mouse melanoma model = conditions: reported; cited from earlier work
compound,measurement,setting,value
Nc1ccccc1NC(=O)CCCCCCC(=O)Nc1ccccc1 [BML-210],"visible damages in the heart, kidney, spleen, liver and lung",[1],No visible damages
same,tumor growth and weight,EO771 tumors,No significant differences
same,size of gross dissected mammary EO771 tumors,EO771 tumors,no significant difference in size
same,expression of antigen processing and presentation DEGs (qPCR),MDA-MB-468 cells,most of DEGs had higher expression levels
same,H-2Kb antigen presentation (confocal images),OVA+ EO771 cells,boosted up the antigen presentation
same,H-2Kb levels on EO771 cells (MFI),OVA+ EO771 cells,much higher levels
C#Cc1cccc(Nc2ncnc3cc(OC)c(OCCCCCCC(=O)NO)cc23)c1 [CUDC-101],"visible damages in the heart, kidney, spleen, liver and lung",[1],No visible damages
same,tumor growth and weight,EO771 tumors,No significant differences
same,size of gross dissected mammary EO771 tumors,EO771 tumors,no significant difference in size
same,H-2Kb antigen presentation (confocal images),OVA+ EO771 cells,boosted up the antigen presentation
same,H-2Kb levels on EO771 cells (MFI),OVA+ EO771 cells,increased
c1ccc([C@@H]2C[C@H]2NC2CCNCC2)cc1 [GSK-LSD1],H-2Kb antigen presentation (confocal images),OVA+ EO771 cells,boosted up the antigen presentation
same,H-2Kb levels on EO771 cells (MFI),OVA+ EO771 cells,increased
same,CD8+ T cell infiltration and anti-tumor response,mouse melanoma model,promote CD8+ T cell infiltration and anti-tumor response

# Source: patent publication US20240299321A1, “METHODS TO SENSITIZE CANCER CELLS AND STANDARDIZED SCREENING ASSAY FOR IMMUNOTHERAPY” (THE TRUSTEES OF INDIANA UNIVERSITY, priority 2020, published 2024)
